Holding throughout (type): cell-based
The subject of one assay is HCI-037 PDxO cells. The assay is described as follows: QPI on cells from patient-derived organoid HCI-037 (primary lesion). The settings on record: HCI-037. The procedure: (§1) In some embodiments, the QPI microscope system 110 performs QPI on cells from patient-derived organoids and direct-from-patient samples. For example, the electronic controller 155 analyzes data on cells from a set of 5 organoids representing samples collected from two patients, as illustrated by a workflow 3400 in FIG. 24. The workflow 3400 is an experiment workflow illustrating how assays are analyzed by the QPI microscope system 110. In some embodiments, the QPI microscope system 110 images cells for 48 h, and uses an automatic segmentation algorithm, via the electronic controller 155, to identify individual cells from background, as shown in images 3405 and 3410 of FIG. 24. […] The electronic controller 155 determines the mass of each cell by summing the cell mass over the segmented area. In some embodiments, plots of mass over time reveal single cell growth rates, as shown by graph 3415 of FIG. 24. The graph 3415 is a mass vs. time plot showing DMSO treated cells growing cells at a typical location. Cells outlined in green are shown as green on the plot, other growing cells are shown in purple. The electronic controller 155 determine the specific growth rate (SGR) by fitting a line to time-series mass measurements and normalizing by an initial mass predicted by the fit to account for the effect of cell size on growth rate. The electronic controller 155 fits SGR as a function of dose to a sigmoidal dose response curve using a 3-parameter Hill model to extract dose response measurements, as shown by graph 3420 of FIG. 24. […] In some embodiments, EC50 measured by the QPI microscope system 110 is strongly concordant with gold standard techniques such as CTG over 27 conditions (e.g., 9 compounds, 3 breast cancer cell lines). […] As with cell line data, QPI data on cells from PDxO resolves differences in temporal dynamics of response to therapy, as shown in graph 3425 of FIG. 24. […] In some embodiments, the electronic controller 155 is configured to determine a drug response of each of the plurality of treatment samples from patient derived organoids.
The graphs 3500 includes graph A of the graphs 3500 showing normalized mass vs. time for HCI-037 (primary), HCI-038 (metastatic), and HCI-039 (pleural effusion) showing reduction in growth as concentration increases. Graphs B, C, D, and E of the graphs 3500 show dose response plots showing the differential response between different disease models. Graphs F, G, H, and I of the graphs 3500 show Hellinger distance vs. time plots showing the time of response for the different models treated with various therapies. In some embodiments, HCI-037, HCI-038, and HCI-039, PDxO models are used that are derived from primary lesion, bone metastasis, and pleural effusion, respectively, at different time points from a single patient during the course of treatment and progressive disease. In some embodiments, the electronic controller 155 is configured to determine a difference drug response from patient derived organoids. In some embodiments, the patient derived organoids are tumor organoids.

The test system of a further assay is HCI-039 PDxO cells. The assay is described as follows: QPI on cells from patient-derived organoid HCI-039 (pleural effusion). The settings on record: HCI-039. The procedure:
as §1, with “organoids. […]” for “organoids.”

A further assay has as its system HCI-038 PDxO cells. The assay is described as follows: QPI on cells from patient-derived organoid HCI-038 (bone metastasis). The settings on record: HCI-038. How it is done: In some embodiments, the QPI microscope system 110 performs QPI on cells from patient-derived organoids and direct-from-patient samples. For example, the electronic controller 155 analyzes data on cells from a set of 5 organoids representing samples collected from two patients, as illustrated by a workflow 3400 in FIG. 24. The workflow 3400 is an experiment workflow illustrating how assays are analyzed by the QPI microscope system 110. In some embodiments, the QPI microscope system 110 images cells for 48 h, and uses an automatic segmentation algorithm, via the electronic controller 155, to identify individual cells from background, as shown in images 3405 and 3410 of FIG. 24. […] The electronic controller 155 determines the mass of each cell by summing the cell mass over the segmented area. In some embodiments, plots of mass over time reveal single cell growth rates, as shown by graph 3415 of FIG. 24. The graph 3415 is a mass vs. time plot showing DMSO treated cells growing cells at a typical location. Cells outlined in green are shown as green on the plot, other growing cells are shown in purple. […] In some embodiments, EC50 measured by the QPI microscope system 110 is strongly concordant with gold standard techniques such as CTG over 27 conditions (e.g., 9 compounds, 3 breast cancer cell lines). […]

SMILES strings stand for the structures.

Consider one compound from patent US20250052985A1, “SYSTEM AND METHOD FOR QUANTITATIVE PHASE IMAGING FOR MULTI-PARAMETRIC SCREENING OF TUMOR THERAPY RESPONSE” (UNIVERSITY OF UTAH RESEARCH FOUNDATION, priority 2023, published 2025).

As to `CC[C@H](NC(=O)[C@H](C)NC)C(=O)N1C[C@@H](O)C[C@H]1Cc1c(-c2[nH]c3cc(F)ccc3c2C[C@@H]2C[C@H](O)CN2C(=O)[C@H](CC)NC(=O)[C@H](C)NC)[nH]c2cc(F)ccc12` [birinapant], in the assay on HCI-037 PDxO cells, the “EC50 compared with HCI-039” value is recorded as “similar” and the “depth of response compared with HCI-039” value was “much greater depth of response”. Moreover, in the assay on HCI-039 PDxO cells, the “EC50 compared with HCI-037” value is on record as “similar” and the “time of response compared with HCI-037” value is recorded as “much faster time of response”. Moreover, in the assay with HCI-038 PDxO cells, the response entry is “no response”.
